# Values quoted from earlier work as cited in US20190070210A1, “COMPOSITION AND METHODS FOR CONDITIONS ASSOCIATED WITH CHRONIC PULMONARY OBSTRUCTIVE DISEASE” (priority 2017, published 2019).
# Details: solution, 4° C. and neutral pH
structure (smiles),measurement,value
"NC(=O)c1ccc[n+]([C@@H]2O[C@H](COP(=O)([O-])OP(=O)(O)OC[C@H]3O[C@@H](n4cnc5c(N)ncnc54)[C@H](O)[C@@H]3O)[C@@H](O)[C@H]2O)c1 [NAD+, nicotinamide adenine dinucleotide]",time for which solutions are stable,about a week
